# According to patent publication US20240383875A1, “Benzimidazole Pyridine Derivatives” (Hoffmann-La Roche Inc., priority 2022, published 2024):
# Experiments:
# Assay type in all cases: biochemical
# SIK1 = SIK1 (Homo sapiens, UniProt P57059); assay: Enzymatic activity assay SIK1, RapidFire mass spectrometry (phosphorylation of CHK-peptide); conditions: RapidFire MS, inhibition of SIK1; read-out: SIK1 RF IC50
# In short: (§1)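 Human SIK1/2/3, 5/0.5/1.5 nM; 12.5 mM HEPES pH 7.0, 10 mM Mg acetate, 0.005% BSA. 30 min cpd pre-inc, + CHK-peptide (10 μM soln) + ATP (100 μM soln), 45 min RT. Formic acid stop; RF-MS phospho ratio; IC50.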
# SIK2 = SIK2 (Homo sapiens, UniProt Q9H0K1); assay: Enzymatic activity assay SIK2, RapidFire mass spectrometry (phosphorylation of CHK-peptide); conditions: RapidFire MS, inhibition of SIK2; read-out: SIK2 RF IC50
# In short: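 Read-out is the summed phospho-species fraction of CHK-peptide by RapidFire mass spectrometry, normalized between DMSO and 1 μM YKL-05-099. The reaction used 0.5 nM SIK2, 100 μM ATP and 10 μM peptide solutions in HEPES pH 7.0/10 mM magnesium acetate for 45 min at ambient temperature.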
# SIK3 = SIK3 (Homo sapiens, UniProt Q9Y2K2); assay: Enzymatic activity assay SIK3, RapidFire mass spectrometry (phosphorylation of CHK-peptide); conditions: RapidFire MS, inhibition of SIK3; read-out: SIK3 RF IC50
# In short: as §1
# Chain of SIK2 (Q9H0K1 whole entry): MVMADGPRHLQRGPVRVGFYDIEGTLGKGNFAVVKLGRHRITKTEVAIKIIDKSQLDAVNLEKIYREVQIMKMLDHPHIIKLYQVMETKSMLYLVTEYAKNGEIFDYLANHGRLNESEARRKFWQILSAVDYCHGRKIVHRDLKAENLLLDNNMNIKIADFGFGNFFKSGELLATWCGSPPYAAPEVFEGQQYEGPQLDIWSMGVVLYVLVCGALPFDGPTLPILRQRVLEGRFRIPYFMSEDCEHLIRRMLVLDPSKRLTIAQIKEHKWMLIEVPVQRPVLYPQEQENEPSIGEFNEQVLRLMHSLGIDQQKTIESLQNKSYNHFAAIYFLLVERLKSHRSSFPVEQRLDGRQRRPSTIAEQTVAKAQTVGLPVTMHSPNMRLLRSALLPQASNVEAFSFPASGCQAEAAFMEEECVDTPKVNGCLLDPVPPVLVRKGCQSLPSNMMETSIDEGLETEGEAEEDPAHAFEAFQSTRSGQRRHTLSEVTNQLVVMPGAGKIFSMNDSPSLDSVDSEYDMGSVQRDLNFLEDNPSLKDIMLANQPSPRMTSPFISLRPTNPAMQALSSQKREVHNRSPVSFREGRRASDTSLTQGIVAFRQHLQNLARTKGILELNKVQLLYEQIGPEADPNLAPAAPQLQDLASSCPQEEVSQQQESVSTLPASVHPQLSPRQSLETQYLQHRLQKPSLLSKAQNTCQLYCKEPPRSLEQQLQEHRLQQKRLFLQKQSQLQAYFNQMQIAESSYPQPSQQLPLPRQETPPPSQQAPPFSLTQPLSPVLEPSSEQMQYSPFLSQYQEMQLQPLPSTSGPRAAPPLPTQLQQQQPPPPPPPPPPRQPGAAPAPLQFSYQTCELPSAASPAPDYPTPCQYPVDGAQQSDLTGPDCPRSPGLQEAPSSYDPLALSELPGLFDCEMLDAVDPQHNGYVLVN
# Chain of SIK1 (P57059 whole entry): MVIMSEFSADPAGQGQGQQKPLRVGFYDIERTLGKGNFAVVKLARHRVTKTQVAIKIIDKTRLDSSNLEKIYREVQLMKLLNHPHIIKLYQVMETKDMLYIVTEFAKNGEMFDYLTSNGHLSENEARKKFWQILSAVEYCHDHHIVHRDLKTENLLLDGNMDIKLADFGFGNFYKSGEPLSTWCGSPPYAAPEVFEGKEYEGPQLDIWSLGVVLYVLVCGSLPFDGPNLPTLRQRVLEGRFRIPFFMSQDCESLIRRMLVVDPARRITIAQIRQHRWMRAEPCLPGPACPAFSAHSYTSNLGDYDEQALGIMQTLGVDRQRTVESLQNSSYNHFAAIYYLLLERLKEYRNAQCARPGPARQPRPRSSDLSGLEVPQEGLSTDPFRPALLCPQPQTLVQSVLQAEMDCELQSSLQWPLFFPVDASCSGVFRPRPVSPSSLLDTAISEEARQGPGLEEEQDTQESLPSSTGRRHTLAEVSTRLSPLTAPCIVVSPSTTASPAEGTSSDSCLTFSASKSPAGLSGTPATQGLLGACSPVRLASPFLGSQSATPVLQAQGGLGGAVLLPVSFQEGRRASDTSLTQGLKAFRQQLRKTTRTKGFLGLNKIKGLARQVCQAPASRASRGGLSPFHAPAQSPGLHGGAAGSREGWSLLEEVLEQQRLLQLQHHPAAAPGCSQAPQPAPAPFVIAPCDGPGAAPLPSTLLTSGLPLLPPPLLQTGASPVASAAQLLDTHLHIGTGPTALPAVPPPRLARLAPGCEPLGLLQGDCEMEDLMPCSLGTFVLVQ
# Chain of SIK3 (Q9Y2K2 whole entry): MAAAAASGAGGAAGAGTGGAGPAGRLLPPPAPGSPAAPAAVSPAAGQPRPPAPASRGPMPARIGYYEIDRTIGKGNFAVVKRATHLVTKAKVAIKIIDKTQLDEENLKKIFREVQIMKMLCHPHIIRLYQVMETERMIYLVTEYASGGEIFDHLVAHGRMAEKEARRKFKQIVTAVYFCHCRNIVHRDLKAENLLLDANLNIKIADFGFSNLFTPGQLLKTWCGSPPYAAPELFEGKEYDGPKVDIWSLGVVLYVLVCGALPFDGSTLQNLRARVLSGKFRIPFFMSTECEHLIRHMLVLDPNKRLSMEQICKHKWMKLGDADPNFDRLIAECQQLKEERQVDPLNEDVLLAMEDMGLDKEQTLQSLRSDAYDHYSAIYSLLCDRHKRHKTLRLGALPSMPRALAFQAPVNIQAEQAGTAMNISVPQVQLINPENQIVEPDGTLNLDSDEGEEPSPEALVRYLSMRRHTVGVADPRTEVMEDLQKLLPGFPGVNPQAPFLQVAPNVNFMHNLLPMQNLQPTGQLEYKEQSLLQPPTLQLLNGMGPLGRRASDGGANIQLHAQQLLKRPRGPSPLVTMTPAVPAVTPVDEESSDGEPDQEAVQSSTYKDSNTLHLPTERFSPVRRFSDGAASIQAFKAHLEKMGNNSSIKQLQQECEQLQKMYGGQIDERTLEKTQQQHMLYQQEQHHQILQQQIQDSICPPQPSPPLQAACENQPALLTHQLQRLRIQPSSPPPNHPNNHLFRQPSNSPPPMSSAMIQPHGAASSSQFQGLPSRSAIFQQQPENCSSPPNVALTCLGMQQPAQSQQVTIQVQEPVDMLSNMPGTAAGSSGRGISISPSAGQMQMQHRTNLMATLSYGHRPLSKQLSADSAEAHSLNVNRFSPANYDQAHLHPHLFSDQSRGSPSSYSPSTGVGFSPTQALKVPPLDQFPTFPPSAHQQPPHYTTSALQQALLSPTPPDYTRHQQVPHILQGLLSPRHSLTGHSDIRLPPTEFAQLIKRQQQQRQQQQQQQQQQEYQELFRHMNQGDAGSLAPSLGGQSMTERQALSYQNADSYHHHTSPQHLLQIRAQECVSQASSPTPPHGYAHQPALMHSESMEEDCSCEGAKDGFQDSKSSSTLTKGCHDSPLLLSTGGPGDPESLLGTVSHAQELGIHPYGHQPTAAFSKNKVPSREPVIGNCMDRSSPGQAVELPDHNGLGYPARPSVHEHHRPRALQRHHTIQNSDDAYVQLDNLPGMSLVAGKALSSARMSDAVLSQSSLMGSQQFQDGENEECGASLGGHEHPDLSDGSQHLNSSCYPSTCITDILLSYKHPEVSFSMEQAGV
IC50 (SIK1),IC50 (SIK2),IC50 (SIK3),SMILES
> 30000 nM,1390 nM,329 nM,"Cc1ccc(Nc2ccc3c(c2)ncn3-c2nc(-n3ccc(C#N)n3)c(C(C)O)cc2Cl)nn1 (stereo not drawn) [Example 239, 1-[5-Chloro-3-(1-hydroxyethyl)-6-[5-[(6-methylpyridazin-3-yl)amino]benzimidazol-1-yl]-2-pyridyl]pyrazole-3-carbonitrile]"
39 nM,0.6 nM,1 nM,"Cc1ccc(Nc2ccc3c(c2)ncn3-c2ccc(C(C)O)c(-c3cn(CC(F)CF)nc3C)n2)nn1 (stereo not drawn) [Example 399, 1-[2-[1-(2,3-difluoropropyl)-3-methyl-pyrazol-4-yl]-6-[5-[(6-methylpyridazin-3-yl)amino]benzimidazol-1-yl]-3-pyridyl]ethanol]"
1530 nM,22 nM,4.8 nM,"Cc1ccc(Nc2ccc3c(c2)ncn3-c2ccc(C(C)O)c(-n3ncc(C#N)n3)n2)nn1 (stereo not drawn) [Example 256, 2-[3-(1-Hydroxyethyl)-6-[5-[(6-methylpyridazin-3-yl)amino]benzimidazol-1-yl]-2-pyridyl]triazole-4-carbonitrile]"
7820 nM,49.7 nM,52.8 nM,"Cc1ccc(Nc2cc3ncn(-c4ccc([C@@H](C)O)c(-n5nc(C#N)cc5C)n4)c3cc2F)nn1 [Example 237, 1-[6-[6-Fluoro-5-[(6-methylpyridazin-3-yl)amino]benzimidazol-1-yl]-3-[(1R)-1-hydroxyethyl]-2-pyridyl]-5-methyl-pyrazole-3-carbonitrile]"
851 nM,2.6 nM,1.5 nM,"CCn1cc(-c2nc(-n3cnc4cc(Nc5ccc(C)nn5)ccc43)ccc2C(C)O)c(C)n1 (stereo not drawn) [Example 264, 1-[2-(1-Ethyl-3-methyl-pyrazol-4-yl)-6-[5-[(6-methylpyridazin-3-yl)amino]benzimidazol-1-yl]-3-pyridyl]ethanol; formic acid]"
40 nM,0.9 nM,1.2 nM,"Cc1ccc(Nc2ccc3c(c2)ncn3-c2ccc(C(C)O)c(-c3cc(OC(F)F)ncc3C)n2)nn1 (stereo not drawn) [Example 167, 1-[2-[2-(Difluoromethoxy)-5-methyl-4-pyridyl]-6-[5-[(6-methylpyridazin-3-yl)amino]benzimidazol-1-yl]-3-pyridyl]ethanol]"
1990 nM,2500 nM,1900 nM,"Cc1ccc(Nc2ccc3ncn(-c4ccc(C(C)O)c(N5CC(C)(C#N)C5)n4)c3c2)nn1 (stereo not drawn) [Example 184, 1-[3-(1-Hydroxyethyl)-6-[6-[(6-methylpyridazin-3-yl)amino]benzimidazol-1-yl]-2-pyridyl]-3-methyl-azetidine-3-carbonitrile]"
1340 nM,783 nM,236 nM,"Cc1ccc(Nc2ccc3c(c2)ncn3-c2ccc(C(C)O)c(N3CC[C@@H](C#N)C3)n2)nn1 (stereo partly drawn) [Example 105, (3R)-1-[3-(1-Hydroxyethyl)-6-[5-[(6-methylpyridazin-3-yl)amino]benzimidazol-1-yl]-2-pyridyl]pyrrolidine-3-carbonitrile]"
134 nM,0.8 nM,0.2 nM,"Cc1ccc(Nc2ccc3c(c2)ncn3-c2ccc(CO)c(-n3nc(C#N)cc3C)n2)nn1 [Example 270, 5-Methyl-1-[3-methylol-6-[5-[(6-methylpyridazin-3-yl)amino]benzimidazol-1-yl]-2-pyridyl]pyrazole-3-carbonitrile; formic acid]"
664 nM,3.5 nM,2 nM,"Cc1ccc(Nc2cc3ncn(-c4ccc([C@H](C)O)c(-n5nc(C(F)F)cc5C)n4)c3cc2F)nn1 [Example 301, (1S)-1-[2-[3-(difluoromethyl)-5-methyl-pyrazol-1-yl]-6-[6-fluoro-5-[(6-methylpyridazin-3-yl)amino]benzimidazol-1-yl]-3-pyridyl]ethanol]"
767 nM,132 nM,97.9 nM,"Cc1cc(C#N)nn1-c1nc(-n2cnc3cc(N4CCN(C5COC5)CC4)ccc32)ccc1C(C)O (stereo not drawn) [Example 67, 1-[3-(1-Hydroxyethyl)-6-[5-[4-(oxetan-3-yl)piperazin-1-yl]benzimidazol-1-yl]-2-pyridyl]-5-methyl-pyrazole-3-carbonitrile]"
3460 nM,33 nM,6.9 nM,"Cc1ccc(Nc2ccc3c(c2)ncn3-c2ccc(C(C)O)c(-c3cc(C(F)(F)F)nn3C)n2)nn1 (stereo not drawn) [Example 122, 1-[6-[5-[(6-Methylpyridazin-3-yl)amino]benzimidazol-1-yl]-2-[2-methyl-5-(trifluoromethyl)pyrazol-3-yl]-3-pyridyl]ethanol]"
1 nM,1.2 nM,11.9 nM,"Cc1ccc(Nc2ccc3ncn(-c4ccc(C(C)O)c(-n5nc(C#N)c6c5CCN(C)C6)n4)c3c2)nn1 (stereo not drawn) [Example 291, 1-[3-(1-hydroxyethyl)-6-[6-[(6-methylpyridazin-3-yl)amino]benzimidazol-1-yl]-2-pyridyl]-5-methyl-6,7-dihydro-4~{H}-pyrazolo[4,3-c]pyridine-3-carbonitrile]"
12100 nM,151 nM,29 nM,"Cc1ccc(Nc2ccc3c(c2)ncn3-c2ccc(C(C)O)c(-c3cc(F)cnc3Cl)n2)nn1 (stereo not drawn) [Example 174, 1-[2-(2-Chloro-5-fluoro-3-pyridyl)-6-[5-[(6-methylpyridazin-3-yl)amino]benzimidazol-1-yl]-3-pyridyl]ethanol; formic acid]"
53 nM,2.7 nM,2.2 nM,"COC1CN(C(=O)c2ccc(Nc3ccc4c(c3)ncn4-c3ccc(C(C)O)c(-n4nc(C#N)cc4C)n3)nn2)C1 (stereo not drawn) [Example 191, 1-[3-(1-Hydroxyethyl)-6-[5-[[6-(3-methoxyazetidine-1-carbonyl)pyridazin-3-yl]amino]benzimidazol-1-yl]-2-pyridyl]-5-methyl-pyrazole-3-carbonitrile]"
2210 nM,1310 nM,307 nM,"Cc1ccc(Nc2ccc3ncn(-c4ccc(C(C)O)c(N5CCC(C)(C#N)C5)n4)c3c2)nn1 (stereo not drawn) [Example 120, 1-[3-(1-Hydroxyethyl)-6-[6-[(6-methylpyridazin-3-yl)amino]benzimidazol-1-yl]-2-pyridyl]-3-methyl-pyrrolidine-3-carbonitrile]"
88 nM,0.3 nM,0.4 nM,"Cc1ccc(Nc2cc3ncn(-c4ccc([C@H](C)O)c(-n5nc(OC(F)F)cc5C)n4)c3cc2F)nn1 [Example 374, (1S)-1-[2-[3-(difluoromethoxy)-5-methyl-pyrazol-1-yl]-6-[6-fluoro-5-[(6-methylpyridazin-3-yl)amino]benzimidazol-1-yl]-3-pyridyl]ethanol]"
616 nM,10.4 nM,2.6 nM,"Cc1ccc(Nc2ccc3c(c2)ncn3-c2ccc(C(C)O)c(-n3nc(C)cc3C#N)n2)nn1 (stereo not drawn) [Example 104, 2-[3-(1-Hydroxyethyl)-6-[5-[(6-methylpyridazin-3-yl)amino]benzimidazol-1-yl]-2-pyridyl]-5-methyl-pyrazole-3-carbonitrile]"
167 nM,2.1 nM,1.9 nM,"Cc1ccc(Nc2ccc3c(c2)ncn3-c2ccc(C(C)O)c(-c3cnn(CC(C)(F)F)c3C)n2)nn1 (stereo not drawn) [Example 284, 1-[2-[1-(2,2-difluoropropyl)-5-methyl-pyrazol-4-yl]-6-[5-[(6-methylpyridazin-3-yl)amino]benzimidazol-1-yl]-3-pyridyl]ethanol]"
